Test system: γ-secretase
Assay: Cellular γ-secretase assay (inhibition of Aβ42 secretion)
Format: cell-based
Conditions: human neuroglioma H4 cells overexpressing human APP, 22 hrs incubation
Method in brief: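 H4 neuroglioma cells overexpressing human APP got a ten-point compound dilution (0.4% DMSO final) for 22 h at 37 °C. Secreted Aβ42 in the supernatant was measured by electrochemiluminescence sandwich immunoassay (capture biotinylated 6E10, detection ruthenylated BAP15). IC50 came from a nonlinear regression fit.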

| Structure (SMILES) | EC50 |
| --- | --- |
| COc1cc(Nc2nc3c(-c4ccc(F)c(Cl)c4)cc(C4CC4)cn3n2)ccc1-n1cnc(C)c1 [Example 147, [8-(3-Chloro-4-fluoro-phenyl)-6-cyclopropyl-[1,2,4]triazolo[1,5-a]pyridin-2-yl]-[3-methoxy-4-(4-methyl-imidazol-1-yl)-phenyl]-amine] | 33 nM |
| COc1cc(Nc2nc3c(-c4ccc(F)cc4Cl)cc(C4CC4)cn3n2)ccc1-n1cnc(C)c1 [Example 148, [8-(2-Chloro-4-fluoro-phenyl)-6-cyclopropyl-[1,2,4]triazolo[1,5-a]pyridin-2-yl]-[3-methoxy-4-(4-methyl-imidazol-1-yl)-phenyl]-amine] | 90 nM |
| COc1cc(Nc2nc3c(C4=CCOCC4)cccn3n2)ccc1-n1cnc(C)c1 [Example 149, [8-(3,6-Dihydro-2H-pyran-4-yl)-[1,2,4]triazolo[1,5-a]pyridin-2-yl]-[3-methoxy-4-(4-methyl-imidazol-1-yl)-phenyl]-amine] | 370 nM |

— patent publication US20110190269A1, “GAMMA SECRETASE MODULATORS” (priority 2010, published 2011)
